Results as given in paper doi:10.1101/2021.09.30.462449v1 (biorxiv, 2021).
Like-named read-outs stand apart in the source and are kept apart here.

Legend:
RET V804L = RET V804L (Homo sapiens, UniProt P07949, V804L); assay: biochemical; conditions: read-out: % inhibition mean (Z'Lyte)
TEK (Tie2) = TEK (Tie2) (Homo sapiens, UniProt Q02763); assay: biochemical; conditions: read-out: % inhibition mean (Z'Lyte)
CSF1R (FMS) = CSF1R (FMS) (Homo sapiens, UniProt P07333); assay: biochemical; conditions: read-out: % inhibition mean (Z'Lyte)
CLK2 = CLK2 (Homo sapiens, UniProt P49760); assay: biochemical; conditions: read-out: % inhibition mean (Z'Lyte)
MAPK3 (ERK1) = MAPK3 (ERK1) (Homo sapiens, UniProt P27361); assay: biochemical; conditions: read-out: % inhibition mean (Z'Lyte)
KIT T670I = KIT T670I (Homo sapiens, UniProt P10721, T670I); assay: biochemical; conditions: read-out: % inhibition mean (Z'Lyte)
ABL1 T315I = ABL1 T315I (Homo sapiens, UniProt P00519, T315I); assay: biochemical; conditions: read-out: % inhibition mean (Z'Lyte)
KIT V559D = KIT V559D (Homo sapiens, UniProt P10721, V559D); assay: biochemical; conditions: read-out: % inhibition mean (Z'Lyte)
PKN1 (PRK1) = PKN1 (PRK1) (Homo sapiens, UniProt Q16512); assay: biochemical; conditions: read-out: % inhibition mean (Z'Lyte)
FGFR2 N549H = FGFR2 N549H (Homo sapiens, UniProt P21802, N549H); assay: biochemical; conditions: read-out: % inhibition mean (Z'Lyte)
IKBKB (IKK beta) = IKBKB (IKK beta) (Homo sapiens, UniProt O14920); assay: biochemical; conditions: read-out: % inhibition mean (Z'Lyte)
CDK1/cyclin B = CDK1/cyclin B (Homo sapiens, UniProt P06493); assay: biochemical; conditions: read-out: % inhibition mean (Z'Lyte)
MAPK12 (p38 gamma) = MAPK12 (p38 gamma) (Homo sapiens, UniProt P53778); assay: biochemical; conditions: read-out: % inhibition mean (Z'Lyte)
NEK2 = NEK2 (Homo sapiens, UniProt P51955); assay: biochemical; conditions: read-out: % inhibition mean (Z'Lyte)
GSK3A (GSK3 alpha) = GSK3A (GSK3 alpha) (Homo sapiens, UniProt P49840); assay: biochemical; conditions: read-out: % inhibition mean (Z'Lyte)
MUSK = MUSK (Homo sapiens, UniProt O15146); assay: biochemical; conditions: read-out: % inhibition mean (Z'Lyte)
AURKC (Aurora C) = AURKC (Aurora C) (Homo sapiens, UniProt Q9UQB9); assay: biochemical; conditions: read-out: % inhibition mean (Z'Lyte)
FGFR1 = FGFR1 (Homo sapiens, UniProt P11362); assay: biochemical; conditions: read-out: % inhibition mean (Z'Lyte)
CDK2/cyclin A = CDK2/cyclin A (Homo sapiens, UniProt P24941); assay: biochemical; conditions: read-out: % inhibition mean (Z'Lyte)
GRK4 = GRK4 (Homo sapiens, UniProt P32298); assay: biochemical; conditions: read-out: % inhibition mean (Z'Lyte)
PRKCE (PKC epsilon) = PRKCE (PKC epsilon) (Homo sapiens, UniProt Q02156); assay: biochemical; conditions: read-out: % inhibition mean (Z'Lyte)
FGFR3 V555M = FGFR3 V555M (Homo sapiens, UniProt P22607, V555M); assay: biochemical; conditions: read-out: % inhibition mean (Z'Lyte)
FLT3 = FLT3 (Homo sapiens, UniProt P36888); assay: biochemical; conditions: read-out: % inhibition mean (Z'Lyte)
PDK1 = PDK1 (Homo sapiens, UniProt O15530); assay: biochemical
PL^pro = PL^pro (Severe acute respiratory syndrome coronavirus 2, UniProt P0DTD1); assay: FRET peptide cleavage assay; format: biochemical
CAMK1 (CaMK1) [1] = molecular target: T1, CAMK1 (CaMK1) (Homo sapiens, UniProt Q14012); assay: biochemical; conditions: read-out: % inhibition mean (Adapta)
CAMK1 (CaMK1) [2] = molecular target: T1, CAMK1 (CaMK1); assay: Adapta universal kinase assay; format: biochemical
MLCK (MLCK2) = MLCK (MLCK2) (Homo sapiens, UniProt Q32MK0); assay: biochemical; conditions: read-out: % inhibition mean (Lanthascreen)

T1 sequence (Q14012 whole entry): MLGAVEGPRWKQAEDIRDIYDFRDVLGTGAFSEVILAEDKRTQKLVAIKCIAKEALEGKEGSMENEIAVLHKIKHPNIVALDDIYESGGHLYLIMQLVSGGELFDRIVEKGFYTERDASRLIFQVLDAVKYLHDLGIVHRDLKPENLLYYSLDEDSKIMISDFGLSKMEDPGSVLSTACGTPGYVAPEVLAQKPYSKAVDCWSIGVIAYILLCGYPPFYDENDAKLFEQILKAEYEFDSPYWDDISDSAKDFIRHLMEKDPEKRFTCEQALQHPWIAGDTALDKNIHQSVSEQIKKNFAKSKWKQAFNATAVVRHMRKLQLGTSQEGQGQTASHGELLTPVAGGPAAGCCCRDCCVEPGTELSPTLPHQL
Chain of PDK1 (O15530 whole entry): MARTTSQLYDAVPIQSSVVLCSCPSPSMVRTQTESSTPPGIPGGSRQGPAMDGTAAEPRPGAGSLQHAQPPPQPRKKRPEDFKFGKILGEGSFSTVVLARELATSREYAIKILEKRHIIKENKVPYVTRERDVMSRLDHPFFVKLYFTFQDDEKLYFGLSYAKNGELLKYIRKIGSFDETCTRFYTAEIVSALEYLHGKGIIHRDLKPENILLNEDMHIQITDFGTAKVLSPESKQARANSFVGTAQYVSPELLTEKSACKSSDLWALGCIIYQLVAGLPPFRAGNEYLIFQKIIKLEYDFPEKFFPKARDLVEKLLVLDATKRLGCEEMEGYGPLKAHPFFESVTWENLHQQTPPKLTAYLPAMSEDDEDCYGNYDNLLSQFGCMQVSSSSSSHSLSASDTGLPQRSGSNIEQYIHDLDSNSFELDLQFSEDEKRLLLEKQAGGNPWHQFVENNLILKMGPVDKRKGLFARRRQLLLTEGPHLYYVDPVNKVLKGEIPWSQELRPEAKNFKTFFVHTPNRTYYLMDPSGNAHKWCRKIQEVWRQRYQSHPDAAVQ
Chain of GRK4 (P32298 whole entry): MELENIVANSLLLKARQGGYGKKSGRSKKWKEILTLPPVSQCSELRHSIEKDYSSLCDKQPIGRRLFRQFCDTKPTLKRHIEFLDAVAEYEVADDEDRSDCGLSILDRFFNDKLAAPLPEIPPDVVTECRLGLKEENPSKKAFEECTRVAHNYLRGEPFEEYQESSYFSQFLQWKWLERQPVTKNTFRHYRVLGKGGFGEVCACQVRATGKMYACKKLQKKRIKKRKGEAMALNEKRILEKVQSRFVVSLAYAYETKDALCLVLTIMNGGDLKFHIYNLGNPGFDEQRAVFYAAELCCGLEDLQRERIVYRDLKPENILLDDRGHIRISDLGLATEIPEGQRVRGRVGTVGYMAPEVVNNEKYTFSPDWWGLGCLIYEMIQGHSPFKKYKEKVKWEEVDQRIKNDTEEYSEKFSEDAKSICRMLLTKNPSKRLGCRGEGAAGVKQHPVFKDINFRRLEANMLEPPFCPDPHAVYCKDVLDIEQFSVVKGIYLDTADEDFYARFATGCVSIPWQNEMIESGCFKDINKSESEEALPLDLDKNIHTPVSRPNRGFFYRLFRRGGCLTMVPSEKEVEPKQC
Chain of MUSK (O15146 whole entry): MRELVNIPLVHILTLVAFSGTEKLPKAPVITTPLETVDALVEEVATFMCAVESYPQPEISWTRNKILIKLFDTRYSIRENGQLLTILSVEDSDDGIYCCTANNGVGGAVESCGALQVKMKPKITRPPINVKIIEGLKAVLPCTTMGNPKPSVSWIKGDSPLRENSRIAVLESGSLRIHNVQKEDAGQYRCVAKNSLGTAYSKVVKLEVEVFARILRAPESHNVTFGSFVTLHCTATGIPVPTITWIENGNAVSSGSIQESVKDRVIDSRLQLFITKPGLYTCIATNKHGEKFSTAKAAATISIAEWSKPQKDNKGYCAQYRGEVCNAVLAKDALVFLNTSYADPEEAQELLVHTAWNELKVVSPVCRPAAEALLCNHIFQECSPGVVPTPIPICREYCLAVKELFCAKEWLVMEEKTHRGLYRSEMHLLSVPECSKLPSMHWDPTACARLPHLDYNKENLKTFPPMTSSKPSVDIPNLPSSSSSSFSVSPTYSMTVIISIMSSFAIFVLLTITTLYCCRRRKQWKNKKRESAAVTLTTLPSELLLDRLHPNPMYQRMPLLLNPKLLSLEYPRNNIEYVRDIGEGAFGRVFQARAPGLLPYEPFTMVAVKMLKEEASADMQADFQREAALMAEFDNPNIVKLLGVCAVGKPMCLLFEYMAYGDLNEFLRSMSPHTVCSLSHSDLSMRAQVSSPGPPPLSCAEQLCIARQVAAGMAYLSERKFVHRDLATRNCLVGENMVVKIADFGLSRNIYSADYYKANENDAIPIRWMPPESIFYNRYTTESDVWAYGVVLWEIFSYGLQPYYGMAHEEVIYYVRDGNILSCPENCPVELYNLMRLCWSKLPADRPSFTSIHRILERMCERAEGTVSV
Chain of MAPK3 (ERK1) (P27361 whole entry): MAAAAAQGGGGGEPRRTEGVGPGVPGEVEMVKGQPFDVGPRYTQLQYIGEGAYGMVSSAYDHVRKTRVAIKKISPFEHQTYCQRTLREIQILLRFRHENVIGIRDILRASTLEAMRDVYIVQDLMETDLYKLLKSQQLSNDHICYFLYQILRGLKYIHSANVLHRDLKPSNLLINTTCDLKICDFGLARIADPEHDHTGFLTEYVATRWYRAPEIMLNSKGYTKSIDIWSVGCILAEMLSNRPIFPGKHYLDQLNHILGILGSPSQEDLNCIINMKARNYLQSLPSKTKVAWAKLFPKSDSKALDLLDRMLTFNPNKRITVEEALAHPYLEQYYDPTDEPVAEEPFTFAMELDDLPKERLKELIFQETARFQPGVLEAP
Chain of FGFR1 (P11362 whole entry): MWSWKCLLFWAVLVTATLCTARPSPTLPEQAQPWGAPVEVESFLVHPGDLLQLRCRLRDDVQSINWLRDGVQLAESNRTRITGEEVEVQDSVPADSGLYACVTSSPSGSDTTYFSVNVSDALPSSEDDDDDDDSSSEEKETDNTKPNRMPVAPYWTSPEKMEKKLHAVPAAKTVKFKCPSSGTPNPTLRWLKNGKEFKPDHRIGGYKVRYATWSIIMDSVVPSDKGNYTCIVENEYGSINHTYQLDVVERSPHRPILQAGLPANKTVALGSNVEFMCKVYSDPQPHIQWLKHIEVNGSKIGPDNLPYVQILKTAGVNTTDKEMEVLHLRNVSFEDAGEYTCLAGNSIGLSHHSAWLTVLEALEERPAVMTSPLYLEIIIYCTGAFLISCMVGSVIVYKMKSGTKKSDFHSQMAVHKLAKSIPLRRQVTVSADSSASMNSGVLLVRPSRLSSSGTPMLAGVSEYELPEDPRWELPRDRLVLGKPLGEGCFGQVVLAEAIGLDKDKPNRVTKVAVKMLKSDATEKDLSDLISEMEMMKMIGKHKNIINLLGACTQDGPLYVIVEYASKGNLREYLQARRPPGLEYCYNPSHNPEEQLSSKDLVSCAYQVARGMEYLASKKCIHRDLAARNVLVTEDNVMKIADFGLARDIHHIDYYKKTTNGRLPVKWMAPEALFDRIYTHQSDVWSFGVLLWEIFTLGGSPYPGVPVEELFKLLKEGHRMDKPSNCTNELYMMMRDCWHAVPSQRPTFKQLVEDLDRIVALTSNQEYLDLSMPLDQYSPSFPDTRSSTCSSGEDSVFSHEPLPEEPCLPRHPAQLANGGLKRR
Chain of FGFR3 V555M (P22607 whole entry V555M): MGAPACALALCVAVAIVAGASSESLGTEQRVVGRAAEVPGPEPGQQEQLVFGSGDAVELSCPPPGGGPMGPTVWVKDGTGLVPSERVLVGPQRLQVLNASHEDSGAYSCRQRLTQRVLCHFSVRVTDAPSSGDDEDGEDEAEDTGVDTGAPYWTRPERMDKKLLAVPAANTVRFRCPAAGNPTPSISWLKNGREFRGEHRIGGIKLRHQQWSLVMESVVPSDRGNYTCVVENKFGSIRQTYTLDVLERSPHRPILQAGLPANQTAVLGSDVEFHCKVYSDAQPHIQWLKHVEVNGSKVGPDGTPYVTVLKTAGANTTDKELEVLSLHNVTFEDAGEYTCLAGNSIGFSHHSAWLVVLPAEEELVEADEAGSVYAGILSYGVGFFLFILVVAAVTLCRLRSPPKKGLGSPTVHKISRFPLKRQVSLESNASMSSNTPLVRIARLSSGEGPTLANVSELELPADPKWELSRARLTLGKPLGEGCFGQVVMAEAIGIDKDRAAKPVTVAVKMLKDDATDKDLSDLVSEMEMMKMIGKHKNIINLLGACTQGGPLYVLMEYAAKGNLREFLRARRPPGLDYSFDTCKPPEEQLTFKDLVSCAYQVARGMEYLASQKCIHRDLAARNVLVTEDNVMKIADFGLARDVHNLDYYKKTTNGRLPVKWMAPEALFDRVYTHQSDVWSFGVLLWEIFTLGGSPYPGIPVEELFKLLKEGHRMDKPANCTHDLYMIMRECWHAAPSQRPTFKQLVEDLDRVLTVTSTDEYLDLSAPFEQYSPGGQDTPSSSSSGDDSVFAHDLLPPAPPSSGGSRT
Chain of GSK3A (GSK3 alpha) (P49840 whole entry): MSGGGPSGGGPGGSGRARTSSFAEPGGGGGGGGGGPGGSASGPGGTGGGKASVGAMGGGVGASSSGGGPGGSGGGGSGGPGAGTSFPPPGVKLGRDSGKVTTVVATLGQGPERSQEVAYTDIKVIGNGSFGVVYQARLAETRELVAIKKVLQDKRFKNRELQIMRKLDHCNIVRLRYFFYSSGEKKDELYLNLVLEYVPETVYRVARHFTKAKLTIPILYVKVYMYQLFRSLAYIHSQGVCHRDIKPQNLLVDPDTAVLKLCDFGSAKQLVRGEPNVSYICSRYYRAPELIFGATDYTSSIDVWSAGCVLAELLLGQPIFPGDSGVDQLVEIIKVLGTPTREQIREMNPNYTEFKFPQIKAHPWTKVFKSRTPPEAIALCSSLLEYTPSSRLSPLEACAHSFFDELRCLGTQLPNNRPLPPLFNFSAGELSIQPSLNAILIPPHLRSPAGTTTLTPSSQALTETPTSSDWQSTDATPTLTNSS

COc1ccc2nc3cc(Cl)ccc3c(Nc3cc(CN4CCCC4)c(O)c(CN4CCCC4)c3)c2n1 [Pyronaridine, 4-[(7-Chloro-2-methoxybenzo[b][1,5]naphthyridin-10-yl)amino]-2,6-bis(1-pyrrolidinylmethyl)phenol phosphate (1:4)]
inhibition at 1 µM (RET V804L): 1% | inhibition at 1 µM (TEK (Tie2)): 5% | inhibition at 1 µM (CSF1R (FMS)): -3% | inhibition at 1 µM (CLK2): 3% | inhibition at 1 µM (MAPK3 (ERK1)): 6% | inhibition at 1 µM (KIT T670I): 1% | inhibition at 1 µM (ABL1 T315I): 11% | inhibition at 1 µM (KIT V559D): -1% | inhibition at 1 µM (PKN1 (PRK1)): 1% | inhibition at 1 µM (FGFR2 N549H): 2% | inhibition at 1 µM (IKBKB (IKK beta)): 1% | inhibition at 1 µM (CDK1/cyclin B): 5% | inhibition at 1 µM (MAPK12 (p38 gamma)): 7% | inhibition at 1 µM (NEK2): -4% | inhibition at 1 µM (GSK3A (GSK3 alpha)): 4% | inhibition at 1 µM (MUSK): -10% | inhibition at 1 µM (AURKC (Aurora C)): -11% | inhibition at 1 µM (FGFR1): -5% | inhibition at 1 µM (CDK2/cyclin A): 0% | inhibition at 1 µM (GRK4): 25% | inhibition at 1 µM (PRKCE (PKC epsilon)): 6% | inhibition at 1 µM (FGFR3 V555M): -1% | inhibition at 1 µM (FLT3): 3% | inhibition at 1 µM (PDK1; read-out: % inhibition mean (Z'Lyte)): 0% | inhibition at 1 µM (PDK1; read-out: % inhibition mean (Z'Lyte), direct format): 7% | IC50 (PL^pro): 1860 ± 580 nM | inhibition at 1 µM (CAMK1 (CaMK1) [1]): 35% | IC50 (CAMK1 (CaMK1) [2]): 2400 nM | inhibition at 1 µM (MLCK (MLCK2)): -6%
